Source: patent US7799524B2, “Substrates for O6-alkylguanina-DNA alkyltransferase” (Ecole Polytechnique Ferdeale de Lausanne, priority 2002, dated 2010)
Changes are numbered by the printed parent chain.

What was measured:
^PGEAhAGT-GST [1] = molecular target: T1, ^PGEAhAGT-GST (Homo sapiens, UniProt P16455, G160A/N157G/S159E); assay: Reactivity with hAGT fusion protein: pre-incubation with compound, then biotinylated O^6-benzylguanine-oligonucleotide, Western Blot (anti-biotin); assay type: biochemical; settings: 18 pmol protein, 0.2 μL of 5 mM compound in 15 μL 50 mM HEPES pH 7.5, 1 h, then 10 pmol biotinylated oligonucleotide 15 min
T1 sequence (P16455 1-207 N157G/S159E/G160A): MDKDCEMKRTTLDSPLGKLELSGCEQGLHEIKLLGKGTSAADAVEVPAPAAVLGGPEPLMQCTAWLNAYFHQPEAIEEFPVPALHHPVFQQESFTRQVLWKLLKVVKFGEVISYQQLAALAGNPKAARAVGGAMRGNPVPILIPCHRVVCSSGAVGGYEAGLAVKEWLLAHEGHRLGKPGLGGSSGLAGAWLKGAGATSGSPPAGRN
Experimental: Lane marked “C” (control): The reaction product of ^[…] and the biotinylated O^6-benzylguanine oligonucleotide. […] Damoiseaux et al., ChemBiochem 4: 285-287, 2001) is added, and the reaction is allowed to continue for further 15 min. As a control 18 pmol ^[…] are incubated with 10 pmol of the same biotinylated oligonucleotide in a total volume of 15 μL of 50 mM HEPES pH 7.5 for 15 min without any substrate. Detection of the biotinylated reaction product between ^[…] and the biotinylated oligonucleotide is performed by Western Blotting using an anti-biotin conjugate coupled to HRP (Pierce).

GST-^3HYhAGT = molecular target: T2, GST-^3HYhAGT (Homo sapiens, UniProt P16455, A127T/K125A/N157G/R128A/S159E); assay: In vitro reactivity against GST-^3HYhAGT followed by Western Blotting with anti-methotrexate antibody; assay type: biochemical
T2 construct: made in house; host or cells: E. coli
T2 sequence (P16455 1-207 K125A/A127T/R128A/N157G/S159E): T1 sequence (P16455 1-207 N157G/S159E/G160A) with K125A, A127T, R128A, A160G
Experimental: GST-^3HYhAGT is incubated with an excess of 78 or 79 and the reaction is followed by Western Blotting using an anti-methotrexate antibody. […] Accordingly, at concentrations of 78 of 1 μM and at an excess of 78 over ^3HYhAGT (pseudo first-order conditions), 50% of the protein is labelled in less than 10 min.
For the construction of hAGT fusion proteins, preferably the mutant Asn157Gly Ser159Glu is used. […] The rationale behind the introduction of these mutations is to minimize the interaction of hAGT fusion proteins with DNA in the three-hybrid system. The resulting hAGT mutant carrying the five mutations described above is abbreviated as ^3HYhAGT.

[2] = system: yeast L40 expressing LexA and B42 fusion proteins of ^3HYhAGT and DHFR; assay: Growth assay of yeast L40 strains on plates lacking histidine (HIS3 reporter, three-hybrid system); assay type: cell-based; settings: for Growth rate: plates lacking histidine
Experimental: Pairs of plasmids encoding LexA-^3HYhAGT and B42-DHFR fusion proteins are transformed into the yeast strain L40 in which the reconstitution of functional LexA-B42 transcription factor leads to transcription of the reporter genes HIS3 and lacZ. It is tested if the expression of different combinations of fusion protein in the presence of either 78 or 79 complemented the histidine auxotrophy of the yeast L40 (Table 1). […] No growth is observed in the absence of 78 or 79.
In principal, the reconstitution of functional transcription factor through benzyl guanine 78 and 79 is independent of which ligand-binding protein is fused to LexA and which to B42. To verify this assumption the growth of yeast L40 co-expressing LexA-DHFR and B42-^3HYhAGT on plates lacking histidine but containing compounds 78 or 79 is examined.

[3] = system: yeast strain L40 expressing LexA and B42 fusion proteins of ^3HYhAGT and DHFR; assay: Quantitative β-galactosidase assay using ONPG (lacZ reporter) in yeast L40; assay type: cell-based; settings: 1 μM, cell extracts of liquid cultures
Experimental: The activation of transcription of the lacZ reporter gene by the benzyl guanine based compounds 78 and 79 in the yeast strain L40 expressing different combinations of LexA and B42 fusion proteins is examined (Table 2). In this assay, the activity of the product of the lacZ gene, β-galactosidase, is determined by measuring the hydrolysis rate of the chromogenic substrate o-nitrophenyl-β-D-galactopyranoside (ONPG) in cell extracts of liquid cultures.

hAGT = molecular target: T3, hAGT (Homo sapiens, UniProt P16455); settings: reaction with hAGT; cited from earlier work
T3 sequence (P16455 1-207): T1 sequence (P16455 1-207 N157G/S159E/G160A) with G157N, E159S, A160G

^PGEAhAGT-GST [4] = molecular target: T1, ^PGEAhAGT-GST; assay: Labelling of hAGT fusion protein, Western Blot with anti-fluorescein antibody; assay type: biochemical; settings: 18 pmol ^PGEAhAGT-GST, 0.5 nmol compound, 15 μL 50 mM HEPES pH 7.5
Experimental: Lanes 1 and 2 (two different concentrations) show the reaction product of compound 60 bearing a fluorescein label and a biotin label (a compound of formula 1 wherein L is a plurality of labels) with ^PGEAhAGT-GST.
18 pmol ^PGEAhAGT-GST are incubated with 0.5 nmol 60 in a total volume of 15 μL of 50 mM HEPES pH 7.5. The reaction product is detected by Western Blotting using a goat anti-fluorescein antibody (Rockland) and a HRP conjugated anti-goat antibody (Sigma).

[5] = co-expression of LexA-DHFR and B42-^3HYhAGT
[6] = co-expression of LexA-^3HYhAGT and B42-DHFR

## NCCOCCOCCOCCn1cc(COc2nc(N)nc3[nH]cnc23)nn1 [compound 11, O^6-(1-[11-Amino-3,6,9-trioxaundecyl]-1,2,3-triazolyl-4-methyl)guanine]
^PGEAhAGT-GST [1]
  reaction of ^PGEAhAGT-GST with biotinylated oligonucleotide after first reacting with the compound: no further reaction with biotinylated oligonucleotide is observed

## CN(Cc1cnc2nc(N)nc(N)c2n1)c1ccc(C(=O)NC(CCC(=O)NCCOCCOCCOCCOCc2ccc(COc3nc(N)nc4nc[nH]c34)cc2)C(=O)O)cc1 (stereo not drawn) [compound 79, O^6-4-[13-N-(4-{4-[N-(2,4-Diamino-6-pteridinylmethyl)-methylamino]-benzoyl-amino}-4-carboxybutanoyl)-amino-2,5,8,11-tetraoxatridecyl]-benzyl guanine]
GST-^3HYhAGT; GST-^3HYhAGT incubated with an excess of compound
  second-order rate constant: ~900 sec^−1M^−1
[2]; LexA-DHFR/ B42-^3HYhAGT, 10 μM
  Growth rate: ++ (detection of colonies within 3 days)
[2]; LexA-^3HYhAGT/ B42-DHFR, 10 μM
  Growth rate: +++ (detection of colonies within 2 days)
[2]; [5]
  growth of yeast L40 on plates lacking histidine (in words): growth dependent on compounds 78 or 79 is observed
[2]; [6]
  growth of yeast L40 on plates lacking histidine (in words): allows yeast L40 to grow on plates lacking histidine
[3]; LexA-DHFR/ B42-^3HYhAGT
  ONPG hydrolysis: 24 nM of o-nitrophenol formed per min per mg total protein
[3]; LexA-^3HYhAGT/ B42-DHFR
  ONPG hydrolysis: 63 nM of o-nitrophenol formed per min per mg total protein

## Nc1nc(OCc2ccccc2)c2nc[nH]c2n1 [O^6-benzylguanine]
hAGT
  second order rate constant: approximately 10^3 sec^−1 M^−1

## Nc1nc(OCc2ccc(COCCOCCOCCOCCNC(=O)C(CCCCNC(=O)CCCCCNC(=O)c3ccc(-c4c5ccc(=O)cc-5oc5cc(O)ccc45)c(C(=O)O)c3)NC(=O)CCCCCNC(=O)CCCC[C@H]3SC[C@H]4NC(=O)N[C@H]43)cc2)c2nc[nH]c2n1 (stereo partly drawn) [compound 60, O^6-Benzylguanine-PEG-amino-α-N-(biotinyl-6-aminocaproyl)-ε-N-(6-[fluorescein-5-carbonyl]-aminocaproyl)-lysine]
^PGEAhAGT-GST [4]
  substrate for hAGT (reaction product detected by Western Blotting): efficient substrate for hAGT

## CN(Cc1cnc2nc(N)nc(N)c2n1)c1ccc(C(=O)N[C@@H](CCC(=O)NCCCCCCCCCCCC(=O)NCc2ccc(COc3nc(N)nc4[nH]cnc34)cc2)C(=O)O)cc1 [compound 78]
GST-^3HYhAGT; 1 μM 78, excess over ^3HYhAGT, pseudo first-order conditions
  time in which 50% of the protein is labelled: less than 10 min
GST-^3HYhAGT; GST-^3HYhAGT incubated with an excess of compound, read-out: second-order rate constant
  kinact/KI: ~1500 M⁻¹ s⁻¹
[2]; LexA-DHFR/ B42-^3HYhAGT, 1 μM
  Growth rate: ++ (detection of colonies within 3 days)
[2]; LexA-^3HYhAGT/ B42-DHFR, 1 μM
  Growth rate: +++ (detection of colonies within 2 days)
[2]; [5]
  growth of yeast L40 on plates lacking histidine (in words): growth dependent on compounds 78 or 79 is observed
[2]; [6]
  growth of yeast L40 on plates lacking histidine (in words): allows yeast L40 to grow on plates lacking histidine
[3]; LexA-DHFR/ B42-^3HYhAGT
  ONPG hydrolysis: 28 nM of o-nitrophenol formed per min per mg total protein
[3]; LexA-^3HYhAGT/ B42-DHFR
  ONPG hydrolysis: 865 nM of o-nitrophenol formed per min per mg total protein
